Measurements as given in patent US20260166039A1 (SCHRÖDINGER, INC., priority 2022, published 2026).
pIC50: −log10 of the molar value.

Molecular target: T1, Wee1 kinase domain (Homo sapiens, UniProt P30291)
T1 construct: Wee1 kinase domain was purchased from Carna (catalog #05-177); purchased Carna 05-177
Assay: Wee1 Kinase Biochemical Assay (ADP-Glo)
Conditions: 15 uM ATP
How it was run: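 Poly(Lys,Tyr 4:1) phosphorylation by the kinase domain is followed as ADP output (ADP-Glo) after 4 h at 25 °C, with ATP at 15 uM. Values are percent inhibition between vehicle and full-inhibition controls.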

[1] = class symbols, 1 nM Wee1 enzyme, 4 hours at 25° C.
[2] = 1 nM Wee1 enzyme, 4 hours at 25° C

T1 sequence (P30291 299-569 limits assumed): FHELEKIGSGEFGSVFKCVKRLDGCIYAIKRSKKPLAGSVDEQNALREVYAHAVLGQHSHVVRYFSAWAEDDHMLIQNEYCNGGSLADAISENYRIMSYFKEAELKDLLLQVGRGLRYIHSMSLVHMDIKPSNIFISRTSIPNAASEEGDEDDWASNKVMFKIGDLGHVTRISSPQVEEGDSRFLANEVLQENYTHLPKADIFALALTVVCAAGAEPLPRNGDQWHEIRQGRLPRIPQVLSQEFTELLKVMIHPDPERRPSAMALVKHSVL

Compound	pIC50 (Wee1 kinase domain, ADP-Glo)	pIC50 [1]	also measured
CN1CCC(n2cnc(Nc3ncc4c(n3)N(c3cccc(N=S(C)(C)=O)n3)[C@H]3CC(C)(C)OC[C@@]43C)c2)CC1 (single isomer, unassigned) [Example 206]	6.00 to 7.00	–	–
CN1CCC(n2ccc(Nc3ncc4c(n3)N(c3ccccn3)[C@@H]3CC(C)(C)OC[C@]43C)cc2=O)CC1 (single isomer, unassigned) [Example 806]	–	> 8.00	–
CN1C[C@H]2C[C@@H]1CN2c1ccc(Nc2ncc3c(n2)N(c2cccc(N4CCCC4=O)n2)[C@H]2CC(C)(C)OC[C@@]32C)cc1F [Example 639, 1-(6-((4bS,8aS)-2-((3-fluoro-4-((1R,4R)-5-methyl-2,5-diazabicyclo[2.2.1]heptan-2-yl)phenyl)amino)-4b,7,7-trimethyl-4b,7,8,8a-tetrahydropyrano[3′,4′:4,5]pyrrolo[2,3-d]pyrimidin-9(5H)-yl)pyridin-2-yl)pyrrolidin-2-one]	–	7.00 to 8.00	–
CC1(C)C[C@H]2N(c3cccc([C@@H]4CCCN4)n3)c3nc(Nc4ccn(C5CCOCC5)c(=O)c4)ncc3[C@@]2(C)CO1 (single isomer, unassigned) [Example 392]	> 8.00	–	–
CN1CCC(c2ccc(Nc3ncc4c(n3)N(c3cccc(N=S(C)(C)=O)n3)[C@H]3CC(C)(C)OC[C@@]43C)cc2F)CC1 (single isomer, unassigned) [Example 178]	6.00 to 7.00	–	–
C[C@H]1COC(=O)N1c1cccc(N2c3nc(Nc4ccc([C@H]5CCNC5)nc4)ncc3[C@]3(C)COC(C)(C)C[C@H]23)n1 (single isomer, unassigned) [Example 258]	6.00 to 7.00	–	–
CN1CC[C@H](Oc2ccc(Nc3ncc4c(n3)N(c3cccc(C(C)(C)O)n3)[C@H]3CC(C)(C)OC[C@@]43C)cc2)C1 (single isomer, unassigned) [Example 422]	–	7.00 to 8.00	–
Cc1cc(Nc2ncc3c(n2)N(c2cccc([C@H]4CCCN4)n2)[C@H]2CC(C)(C)OC[C@@]32C)ccc1N1CCOCC1 (single isomer, unassigned) [Example 521]	–	6.00 to 7.00	–
C[C@H]1CCC(=O)N1c1cccc(N2c3nc(Nc4ccc(N5C[C@@H]6C[C@H]5CN6C)cc4)ncc3[C@]3(C)COC(C)(C)C[C@H]23)n1 [Example 650, (S)-5-methyl-1-(6-((4bS,8aS)-4b,7,7-trimethyl-2-((4-((1S,4S)-5-methyl-2,5-diazabicyclo[2.2.1]heptan-2-yl)phenyl)amino)-4b,7,8,8a-tetrahydropyrano[3′,4′:4,5]pyrrolo[2,3-d]pyrimidin-9(5H)-yl)pyridin-2-yl)pyrrolidin-2-one]	–	7.00 to 8.00	–
CC1(C)C[C@H]2N(c3cccc(N=S(C)(C)=O)n3)c3nc(NC(=O)c4ccccc4F)ncc3[C@@]2(C)CO1 (single isomer, unassigned) [Example 409]	–	6.00 to 7.00	–
CN1CCCC12CCN(c1ccc(Nc3ncc4c(n3)N(c3ccccn3)[C@@H]3CC(C)(C)OC[C@]43C)cc1)CC2 (single isomer, unassigned) [Example 823]	–	–	pIC50 [2]: > 8.00
Cc1cc(Nc2ncc3c(n2)N(c2cccc(N4CCCC4=O)n2)[C@H]2CC(C)(C)OC[C@@]32C)ccc1N1C[C@@H]2C[C@H]1CN2C [Example 653, 1-(6-((4bS,8aS)-4b,7,7-trimethyl-2-((3-methyl-4-((1S,4S)-5-methyl-2,5-diazabicyclo[2.2.1]heptan-2-yl)phenyl)amino)-4b,7,8,8a-tetrahydropyrano[3′,4′:4,5]pyrrolo[2,3-d]pyrimidin-9(5H)-yl)pyridin-2-yl)pyrrolidin-2-one]	–	7.00 to 8.00	–
CC1(C)C[C@H]2N(c3cccc(N=S(C)(C)=O)n3)c3nc(Nc4cncc(C#N)c4)ncc3[C@@]2(C)CO1 (single isomer, unassigned) [Example 818]	–	–	pIC50 [2]: > 8.00
C[C@H]1COC(=O)N1c1cccc(N2c3nc(Nc4ccc(O[C@@H]5CCN(C)C5)cc4)ncc3[C@]3(C)COC(C)(C)C[C@H]23)n1 (single isomer, unassigned) [Example 330]	7.00 to 8.00	–	–
CN1CCN(c2ccc(Nc3ncc4c(n3)N(c3cccnn3)[C@@H]3CC(C)(C)OC[C@]43C)cc2)CC1 (single isomer, unassigned) [Example 828]	–	–	pIC50 [2]: > 8.00
C[C@H]1COC(=O)N1c1cccc(N2c3nc(Nc4ccc([C@@H]5CCNC5)nc4)ncc3[C@]3(C)COC(C)(C)C[C@H]23)n1 (single isomer, unassigned) [Example 256]	7.00 to 8.00	–	–
CC[C@]1(O)CCc2ccc(N3c4nc(Nc5ccc(N6C[C@H]7C[C@@H]6CN7C)cc5)ncc4[C@@]4(C)COC(C)(C)C[C@@H]34)nc21 [Example 789, (S)-7-ethyl-2-((4bR,8aR)-4b,7,7-trimethyl-2-((4-((1R,4R)-5-methyl-2,5-diazabicyclo[2.2.1]heptan-2-yl)phenyl)amino)-4b,7,8,8a-tetrahydropyrano[3′,4′:4,5]pyrrolo[2,3-d]pyrimidin-9(5H)-yl)-6,7-dihydro-5H-cyclopenta[b]pyridin-7-ol]	–	> 8.00	–
Cc1cc(Nc2ncc3c(n2)N(c2cccc(N=S(C)(C)=O)n2)[C@H]2CC(C)(C)OC[C@@]32C)ccc1[C@@H]1CCNC1 (single isomer, unassigned) [Example 144]	6.00 to 7.00	–	–
CN1C[C@@H]2C[C@H]1CN2c1ccc(Nc2ncc3c(n2)N(c2cccc(N4C(=O)OCC4(C)C)n2)[C@@H]2CC(C)(C)OC[C@]32C)cc1 [Example 796, 4,4-dimethyl-3-(6-((4bR,8aR)-4b,7,7-trimethyl-2-((4-((1S,4S)-5-methyl-2,5-diazabicyclo[2.2.1]heptan-2-yl)phenyl)amino)-4b,7,8,8a-tetrahydropyrano[3′,4′:4,5]pyrrolo[2,3-d]pyrimidin-9(5H)-yl)pyridin-2-yl)oxazolidin-2-one]	–	> 8.00	–
Cc1cc(Nc2ncc3c(n2)N(c2cccc(C(=O)N(C)C)n2)[C@H]2CC(C)(C)OC[C@@]32C)ccc1C1CCN(C)CC1 (single isomer, unassigned) [Example 584]	–	6.00 to 7.00	–

Further lines, with some results ahead:

pIC50 (Wee1 kinase domain, ADP-Glo)	pIC50 [1]	Compound	also measured
6.00 to 7.00	–	CNCc1cccc(N2c3nc(Nc4ccc5c(c4)C(=O)N(C)CC5(C)C)ncc3[C@]3(C)COC(C)(C)C[C@H]23)n1 (single isomer, unassigned) [Example 91]	–
–	≤ 6.00	CNCc1ccnc(N2c3nc(Nc4ccc(N5CCOCC5)cc4)ncc3[C@]3(C)COC(C)(C)C[C@H]23)c1 (single isomer, unassigned) [Example 548]	–
–	7.00 to 8.00	C[C@@H]1COC(=O)N1c1cccc(N2c3nc(Nc4ccc(N5CCN(C)CC5)cc4)ncc3[C@]3(C)COC(C)(C)C[C@H]23)n1 (single isomer, unassigned) [Example 588]	–
7.00 to 8.00	–	C[C@H]1COC(=O)N1c1cccc(N2c3nc(Nc4ccc([C@@]5(C)CCN(C)C5)cc4)ncc3[C@]3(C)COC(C)(C)C[C@H]23)n1 (single isomer, unassigned) [Example 348]	–
–	6.00 to 7.00	CNCc1cccc(N2c3nc(Nc4ccc(N5[C@@H]6COC[C@H]5C6)cc4)ncc3[C@]3(C)COC(C)(C)C[C@H]23)n1 (single isomer, unassigned) [Example 480]	–
–	6.00 to 7.00	CNCc1cccc(N2c3nc(Nc4ccc(-c5cnn(C)c5)c(C)c4)ncc3[C@]3(C)COC(C)(C)C[C@H]23)n1 (single isomer, unassigned) [Example 463]	–
7.00 to 8.00	–	CN[C@H]1CCN(c2ccc(Nc3ncc4c(n3)N(c3cccc(N5C(=O)OC[C@@H]5C)n3)[C@H]3CC(C)(C)OC[C@@]43C)cc2)C1 (single isomer, unassigned) [Example 316]	–
7.00 to 8.00	–	CNCc1cccc(N2c3nc(Nc4ccc([C@H]5CNC(=O)C5)cc4)ncc3[C@]3(C)COC(C)(C)C[C@H]23)n1 (single isomer, unassigned) [Example 62]	–
–	7.00 to 8.00	CN1CC[C@@](C)(c2ccc(Nc3ncc4c(n3)N(c3cccc(N5CCOC5=O)n3)[C@H]3CC(C)(C)OC[C@@]43C)cc2)C1 [Example 671, 3-(6-((4bS,8aS)-2-((4-((S)-1,3-dimethylpyrrolidin-3-yl)phenyl)amino)-4b,7,7-trimethyl-4b,7,8,8a-tetrahydropyrano[3′,4′:4,5]pyrrolo[2,3-d]pyrimidin-9(5H)-yl)pyridin-2-yl)oxazolidin-2-one]	–
–	≤ 6.00	CNCc1cccc(N2c3nc(Nc4ccc(C(C)(C)C(=O)O)cc4)ncc3[C@]3(C)COC(C)(C)C[C@H]23)n1 (single isomer, unassigned) [Example 457]	–
7.00 to 8.00	–	CNCc1cccc(N2c3nc(Nc4ccc(N5CCS(=N)(=O)CC5)cc4)ncc3[C@]3(C)COC(C)(C)C[C@H]23)n1 (single isomer, unassigned) [Example 50]	–
–	7.00 to 8.00	CC1(C)C[C@@H]2N(c3cccc([C@H]4CCCN4)n3)c3nc(Nc4ccc(N5CCOCC5)cc4)ncc3[C@]2(C)CO1 (single isomer, unassigned) [Example 527]	–
6.00 to 7.00	–	CNCc1cccc(N2c3nc(Nc4ccc([C@H]5CCC(=O)N5C)nc4)ncc3[C@]3(C)COC(C)(C)C[C@H]23)n1 (single isomer, unassigned) [Example 97]	–
–	7.00 to 8.00	CNCc1cccc(N2c3nc(Nc4ccc(N5CCN(C)C(=O)C5)cc4)ncc3[C@]3(C)COC(C)(C)C[C@H]23)n1 (single isomer, unassigned) [Example 449]	–
–	6.00 to 7.00	CC1(C)C[C@@H]2N(c3cccc(N4CCOC4=O)n3)c3nc(Nc4ccc(N5CCNCC5)cc4)ncc3[C@]2(C)CO1 (single isomer, unassigned) [Example 600]	–
–	6.00 to 7.00	CNCc1cccc(N2c3nc(Nc4ccc(-c5cnn(C)c5)nc4)ncc3[C@]3(C)COC(C)(C)C[C@H]23)n1 (single isomer, unassigned) [Example 459]	–
7.00 to 8.00	–	CN[C@@H]1CCN(c2ccc(Nc3ncc4c(n3)N(c3cccc(N5C(=O)OC[C@@H]5C)n3)[C@H]3CC(C)(C)OC[C@@]43C)cc2)C1 (single isomer, unassigned) [Example 318]	–
> 8.00	–	CNCc1cccc(N2c3nc(Nc4ccc([C@H]5CCC(=O)N5C)nc4)ncc3[C@@]3(C)COC(C)(C)C[C@@H]23)n1 (single isomer, unassigned) [Example 98]	–
